Source: article PMC12320245 (International Journal of Biological Sciences, 2025)

What was measured:
BV2 cells = conditions: NF-κB/STAT3 downregulation; cited from earlier work
[1] = neuroinflammation or brain injury; cited from earlier work
hippocampus of TBI rats = test: Controlled cortical impact TBI: hippocampal Western blot; format: in vivo, rat
Description: This study used male Sprague-Dawley rats weighing 300-350 g and aged 8 weeks, obtained from DBL Co. (Chungcheongbuk-do, Republic of Korea). The rats were housed in a controlled environment with a temperature of 20 ± 2 °C, a relative humidity of 55 ± 5%, and a 12-hour light/dark cycle. They were provided ad libitum access to food and water. To minimize stress associated with transportation, animals underwent a one-week acclimatization period before the start of the experiments. All experimental procedures were conducted in compliance with the guidelines of the National Institutes of Health for the care and use of laboratory animals and were approved by the Hallym University Institutional Animal Care and Use Committee (protocol # Hallym 2022-23, approved on July 15, 2022). This manuscript follows the principles outlined in the Animal research: reporting in vivo experiments (ARRIVE) guidelines.
A controlled cortical impact (CCI) model was used to induce TBI in rats. Animals were anesthetized with 1-1.5% isoflurane in a 30:70 oxygen-to-nitrous oxide mixture and securely positioned in a stereotaxic frame. A 3 mm craniotomy was performed using a portable drill at a site 2.8 mm lateral to the midline and 3.0 mm posterior to Bregma. TBI was induced using an Impact One™ Stereotaxic Impactor (Leica Biosystems) equipped with a 3 mm flat-tip, set to deliver an impact at a velocity of 5 m/s and a depth of 3 mm. Throughout the procedure, body temperature was maintained at 36-37.5°C using a homeothermic blanket system to prevent hypothermia. […] At designated time points (3 hours, 24 hours, or 2 weeks post-injury), animals were euthanized via transcardial perfusion with saline, followed by 4% paraformaldehyde (PFA). Brains were post-fixed in 4% PFA for 1 hour, cryoprotected in 30% sucrose, and sectioned at a 30 μm thickness using a cryostat microtome (CM1850; Leica, Wetzlar, Germany). Brain sections were stored in cryoprotectant solution at 4°C until further analysis.
Hippocampal samples were homogenized in a lysis buffer containing RIPA buffer (IBS-BR002, iNtRON, Republic of Korea), phosphatase inhibitor (Sigma, USA), and protease inhibitor (Sigma, USA). The homogenates were centrifuged at 14,000 × g for 20 minutes at 4°C, and the supernatants were collected. Protein concentrations were determined using the Bradford protein assay. For analysis, 25 μg of protein from each sample was mixed with SDS loading buffer, separated through SDS-PAGE, and transferred onto PVDF membranes. Membranes were blocked for 2 hours at room temperature with either 5% skim milk or 3% BSA to minimize nonspecific binding. Subsequently, the membranes were incubated overnight at 4°C with primary antibodies diluted in blocking buffer. The following primary antibodies were used: p-p38 MAPK (1:1000, Cell Signaling), p-eIF2α (1:1000, Cell Signaling), p-PERK (1:1000, Cell Signaling), LAMP2 (1:1000, Invitrogen), LC3B (1:1000, Invitrogen), IL-1β (1:500, Gene Tex), TNF-α (1:500, Abcam), and β-actin (1:10,000, Cell Signaling). After primary antibody incubation, membranes were washed in TBS-T (Bio-Rad) and incubated with secondary antibodies for 1 hour at room temperature. Signals were visualized using a chemiluminescence detection system and captured with a bioimaging instrument (Amersham Imager 680, Marlborough, USA).

astrocytes = test: Lysosomal zinc (FluoZin-3 with LysoTracker); format: cell-based; conditions: 10 μM AMX for 30 minutes
PKA = PKA colorimetric activity assay (test tubes); format: biochemical; conditions: 0.1-10 µM
Description: PKA activity was assessed using a microplate-based kinase activity assay. Each well contained reaction buffer, a purified PKA enzyme, and test samples, followed by adding 10 μL of adenosine triphosphate (ATP) solution to initiate the reaction. Plates were incubated at 30°C for 90 minutes, before being washed four times with wash buffer to remove unbound components. Next, 25 μL each of phospho-PKA substrate antibody and horseradish peroxidase (HRP)-conjugated secondary antibody (donkey anti-rabbit IgG) were added to each well. The plates were incubated at room temperature (RT) for 60 minutes under continuous shaking to ensure uniform binding. To detect the phosphorylated substrate, 100 μL of tetramethylbenzidine (TMB) substrate was added to each well, followed by a 30-minute incubation at RT. The reaction was terminated by adding stop solution, and the absorbance was measured at 450 nm by using a microplate reader to quantify PKA activity.

[2] = hippocampus, 24 hours after TBI
[3] = rat hippocampus, 24 hours post-TBI
[4] = rat hippocampus, 24 hours post-TBI, vs TBI-vehicle

CC(C)c1ccc2oc3nc(N)c(C(=O)O)cc3c(=O)c2c1 [AMX, amlexanox]
LPS-induced microglial activation (BV2 cells): attenuated LPS-induced microglial activation
crossing of the BBB [1]: can cross the BBB under pathological conditions
IL-1β expression (Western blot) (hippocampus of TBI rats; [2]): markedly reduced the expression of both cytokines
TNF-α expression (Western blot) (hippocampus of TBI rats; [2]): markedly reduced the expression of both cytokines
LAMP2 expression (hippocampus of TBI rats; [3]): preserved LAMP2 and LC3B expression
LC3B expression (hippocampus of TBI rats; [3]): preserved LAMP2 and LC3B expression
phosphorylation of PERK (hippocampus of TBI rats; [4]): significantly reduced the phosphorylation levels
phosphorylation of eIF2α (hippocampus of TBI rats; [4]): significantly reduced the phosphorylation levels
phosphorylation of p38 MAPK (hippocampus of TBI rats; [4]): significantly reduced the phosphorylation levels
lysosomal zinc (FluoZin-3 fluorescence) (astrocytes): significant increase in zinc fluorescence within lysosomes
PKA activity in test tubes (PKA): activates PKA
